Target: T1, HIV-1 RT enzyme (wild type) (Human immunodeficiency virus type 1 group M subtype B, UniProt P04585)
T1 construct: The reverse transcriptase (RT) enzyme assay has been adapted to a 96-well microtiter plate format
Test: Reverse transcriptase (RT) enzymatic assay (IC50), PicoGreen fluorescence, wild type
Type: biochemical
Conditions: RT enzymatic assay, wild type; read-out: IC50 WT
Description: Reverse Transcriptase (RT) Assays Enzymatic Assay (IC50)
The enzymatic assay employed is described as follows: The reverse transcriptase (RT) enzyme assay has been adapted to a 96-well microtiter plate format and uses PicoGreen™ as a fluorescent intercalator. More explicitly, the HIV-1 RT enzyme was thawed and appropriately diluted into Tris/HCl 50 mM pH 7.8 containing NaCl 60 mM, MgCl2∘6H2O 2 mM, DTT 6 mM, GSH 2 mM and 0.02% w/v Chaps to give ≈10 nM enzyme. […] The plate was pre-incubated for 15 minutes at room temperature before proceeding to the next step. […] Then the enzymatic reaction was initiated by addition of 20 μL of substrate solution. […] After addition of the substrate cocktail, the plate was covered with a plastic seal and incubated for 50 minutes at 37° C. in a dry incubator. The reaction was then quenched by addition of 5 μL of EDTA 0.5 M. The plate was shaken for 30 seconds at medium speed and incubated for 5 minutes at room temperature. Then 160 μL of PicoGreen™ 1:400 dilution from commercial stock (diluted in Tris 20 mM pH 7.5 with EDTA 1 mM) was added and the plate was shaken for 30 seconds and incubated for 10 minutes at room temperature. […] Each row contained at its extremities a blank and a control well.
Table legend: A=>100; B=100-50; C=<50; NT=not tested

Row | Structure (SMILES) | IC50 [nM]
1 | Cc1ccccc1NC(=O)CSc1nccn1-c1cccc2ccccc12 [Entry 414] | > 100
2 | CC(=O)c1ccccc1NC(=O)CSc1nnnn1-c1cccc2ccccc12 [Entry 215] | > 100
3 | O=C(CSCc1nnnn1-c1cccc2ccccc12)Nc1ccccc1[N+](=O)[O-] [Entry 335] | > 100
4 | Cc1ccc(NC(=O)CSc2nnnn2-c2cccc3ccccc23)c(C)c1 [Entry 233] | > 100
5 | O=C(CCCc1nnnn1-c1cccc2ccccc12)Nc1ccccc1Cl [Entry 305] | > 100
6 | Clc1ccccc1/C=C/CSc1nnnn1-c1cccc2ccccc12 [Entry 313] | > 100
7 | CN(CCSc1nnnn1-c1cccc2ccccc12)c1ccccc1[N+](=O)[O-] [Entry 327] | > 100
8 | O=[N+]([O-])c1ccccc1NCCCSc1nnnn1-c1cccc2ccccc12 [Entry 329] | > 100
9 | O=C(CSc1nnnn1-c1cccc2ccccc12)Nc1cccnc1 [Entry 244] | > 100
10 | O=C1C(Sc2nnnn2-c2cccc3ccccc23)CCN1c1ccccc1Cl (stereo not shown) [Entry 346] | > 100
11 | O=C(COCc1nnnn1-c1cccc2ccccc12)Nc1ccccc1[N+](=O)[O-] [Entry 336] | > 100
12 | O=C(NCCSc1nnnn1-c1cccc2ccccc12)c1ccccc1Cl [Entry 331] | > 100
13 | COc1ccccc1NC(=O)CSc1nnnn1-c1cccc2ccccc12 [Entry 212] | > 100
14 | O=C(CNCc1nnnn1-c1cccc2ccccc12)Nc1ccccc1[N+](=O)[O-] [Entry 337] | > 100
15 | Cc1ccccc1-c1ccc(-n2nnnc2SCC(=O)Nc2ccccc2[N+](=O)[O-])c(C)c1 [Entry 132] | > 100
16 | O=C(OCCSc1nnnn1-c1cccc2ccccc12)c1ccccc1Cl [Entry 323] | > 100
17 | O=C(CSc1nnnn1-c1cccc2ccccc12)Nc1ccccc1N1CCOCC1 [Entry 221] | > 100
18 | O=C(OCCSc1nnnn1-c1cccc2ccccc12)c1ccccc1[N+](=O)[O-] [Entry 322] | > 100
19 | NC(=O)c1ccccc1NC(=O)CSc1nnnn1-c1cccc2ccccc12 [Entry 217] | > 100
20 | O=C(CSc1nnnn1Cc1ccc2ccccc2c1)Nc1ccccc1[N+](=O)[O-] [Entry 107] | > 100
21 | O=C(CSc1nnnn1-c1cccc2ccccc12)NCc1ccccc1[N+](=O)[O-] [Entry 344] | > 100
22 | O=[N+]([O-])c1ccccc1C(O)CSc1nnnn1-c1cccc2ccccc12 (stereo not shown) [Entry 309] | > 100
23 | COC(=O)c1cccc(-n2nnnc2SCC(=O)Nc2ccccc2[N+](=O)[O-])c1 [Entry 120] | > 100
24 | O=C(CSc1nnnn1-c1cccc2ccccc12)Nc1ccc([N+](=O)[O-])cc1 [Entry 227] | > 100
25 | O=C(CSc1ccccc1Br)Nc1ccccc1Cl [Entry 426] | > 100
26 | O=[N+]([O-])c1ccccc1CNCCSc1nnnn1-c1cccc2ccccc12 [Entry 328] | > 100
27 | O=C(CSc1nnnn1-c1cccc2ccccc12)Nc1ccccc1-n1cccc1 [Entry 222] | > 100

Row | Structure (SMILES) | IC50 [nM]
28 | O=C(NCCSc1nnnn1-c1cccc2ccccc12)Nc1ccccc1[N+](=O)[O-] [Entry 333] | > 100
29 | CN(CC(=O)Nc1ccccc1[N+](=O)[O-])Cc1nnnn1-c1cccc2ccccc12 [Entry 338] | > 100
30 | CN(C(=O)CSc1nnnn1-c1cccc2ccccc12)c1ccccc1Cl [Entry 342] | > 100
31 | Clc1ccccc1OCCCSc1nnnn1-c1cccc2ccccc12 [Entry 324] | > 100
32 | O=C(CCC1=C(c2cccc3ccccc23)CCC1)Nc1ccccc1Cl [Entry 405] | > 100
33 | NS(=O)(=O)c1ccccc1NC(=O)CSc1nnnn1-c1cccc2ccccc12 [Entry 220] | > 100
34 | COc1ccc(NC(=O)CSc2nnnn2-c2cccc3ccccc23)cc1 [Entry 224] | > 100
35 | Cc1cccc(C)c1-n1nnnc1SCC(=O)Nc1ccccc1[N+](=O)[O-] [Entry 138] | > 100
36 | O=C(CSc1nnnn1-c1cccc2ccccc12)Nc1c(Cl)cccc1Cl [Entry 241] | > 100
37 | COc1ccc(-n2nnnc2SCC(=O)Nc2ccccc2[N+](=O)[O-])c(OC)c1 [Entry 131] | > 100
38 | O=C(CSc1nnnn1-c1cccc2ccccc12)Nc1ccc(-c2ccccc2)cc1 [Entry 226] | > 100
39 | O=C(CSc1nnnn1-c1cccc2ncccc12)Nc1ccccc1[N+](=O)[O-] [Entry 106] | > 100
40 | O=C(Nc1ccccc1[N+](=O)[O-])C1CC1c1nnnn1-c1cccc2ccccc12 (stereo not shown) [Entry 343] | > 100
41 | O=C(C=Cc1nnnn1-c1cccc2ccccc12)Nc1ccccc1[N+](=O)[O-] [Entry 307] | > 100
42 | O=C(CSc1nc2ccccc2n1-c1ccccc1)Nc1ccccc1[N+](=O)[O-] [Entry 412] | > 100
43 | COc1cc(NC(=O)CSc2nnnn2-c2cccc3ccccc23)cc(OC)c1 [Entry 242] | > 100
44 | CSc1ccccc1NC(=O)CSc1nnnn1-c1cccc2ccccc12 [Entry 218] | > 100
45 | O=C(CCCc1nnnn1-c1cccc2ccccc12)Nc1ccccc1[N+](=O)[O-] [Entry 306] | > 100
46 | O=C(CCc1ccccc1-c1cccc2ccccc12)Nc1ccccc1Cl [Entry 410] | > 100
47 | O=C(CSc1nnnn1-c1cccc2ccccc12)Nc1ccccc1C(F)(F)F [Entry 214] | > 100
48 | O=C(CNc1nnnn1-c1cccc2ccccc12)Nc1ccccc1[N+](=O)[O-] [Entry 303] | > 100
49 | CC(C)c1ccccc1NC(=O)CSc1nnnn1-c1cccc2ccccc12 [Entry 204] | > 100
50 | O=C(C[S+]([O-])c1ccccc1-c1cccc2ccccc12)Nc1ccccc1Cl (stereo not shown) [Entry 407] | > 100
51 | O=C(CSc1nnnn1-c1cccc2ccccc12)Nc1ccncc1 [Entry 245] | > 100
52 | Cc1cccc(NC(=O)CSc2nnnn2-c2cccc3ccccc23)c1C [Entry 228] | > 100
53 | c1ccc2c(-n3nnnc3SCc3nc4ccccc4[nH]3)cccc2c1 [Entry 339] | > 100
54 | O=C(CSc1nnnn1-c1cccc2ccccc12)Nc1ccccc1-c1ccccc1 [Entry 206] | > 100

Row | Structure (SMILES) | IC50 [nM]
55 | O=[N+]([O-])c1ccccc1OCCSc1nnnn1-c1cccc2ccccc12 [Entry 320] | > 100
56 | COC(=O)c1ccccc1NC(=O)CSc1nnnn1-c1cccc2ccccc12 [Entry 216] | > 100
57 | O=C(CSc1nnnn1-c1cccc2ccccc12)Nc1ccccc1F [Entry 207] | > 100
58 | O=C(CSc1nnnn1-c1cccc2ccccc12)Nc1ccccc1Cc1ccccc1 [Entry 205] | > 100
59 | O=C(CSc1nnnn1-c1cccc2ccccc12)Cc1ccccc1[N+](=O)[O-] [Entry 345] | > 100
60 | CCOc1ccccc1NC(=O)CSc1nnnn1-c1cccc2ccccc12 [Entry 213] | > 100
61 | O=C(CSc1nnnn1-c1cccc2ccccc12)Nc1cccc([N+](=O)[O-])c1 [Entry 223] | > 100
62 | O=[N+]([O-])c1cccc2[nH]c(CSc3nnnn3-c3cccc4ccccc34)nc12 [Entry 340] | > 100
63 | CN(CCSc1nnnn1-c1cccc2ccccc12)C(=O)c1ccccc1Cl [Entry 332] | > 100
64 | OC(CSc1nnnn1-c1cccc2ccccc12)C(O)c1ccccc1Cl (stereo not shown) [Entry 319] | > 100
65 | CCc1ccccc1NC(=O)CSc1nnnn1-c1cccc2ccccc12 [Entry 203] | > 100
66 | O=[N+]([O-])c1ccccc1CCSc1nnnn1-c1cccc2ccccc12 [Entry 310] | > 100
67 | O=C(CS(=O)(=O)c1ccccc1-c1cccc2ccccc12)Nc1ccccc1Cl [Entry 408] | > 100
68 | O=C(CSc1nnnn1-c1cccc2ccccc12)Nc1ccc(O)cc1 [Entry 225] | > 100
69 | O=[N+]([O-])c1ccccc1NCCSc1nnnn1-c1cccc2ccccc12 [Entry 326] | > 100
70 | O=C1c2ccccc2C(=O)N1CCSc1nnnn1-c1cccc2ccccc12 [Entry 341] | > 100
71 | O=C(CSc1nnnn1-c1cccc2ccccc12)Nc1cccc2c1CCCC2 [Entry 229] | > 100
72 | O=[N+]([O-])c1ccccc1/C=C/CSc1nnnn1-c1cccc2ccccc12 [Entry 312] | > 100
73 | O=C(CSc1nnnn1-c1cccc2ccccc12)Nc1ccccn1 [Entry 243] | > 100
74 | O=C(CSc1nnnn1-c1cccc2ccccc12)Nc1cccc(Cl)c1F [Entry 232] | > 100
75 | O=C(NCCSc1nnnn1-c1cccc2ccccc12)Nc1ccccc1Cl [Entry 334] | > 100
76 | COc1ccccc1NC(=O)CSc1nccn1-c1cccc2ccccc12 [Entry 415] | > 100
77 | Clc1ccccc1OCCSc1nnnn1-c1cccc2ccccc12 [Entry 321] | > 100
78 | Cc1cc(C)c(-n2nnnc2SCC(=O)c2ccc3c(c2)OCO3)c(C)c1 [Entry 423] | > 100
79 | Clc1ccccc1CCCSc1nnnn1-c1cccc2ccccc12 [Entry 311] | > 100
